Earlier results on one compound are cited in article PMC9316000, “Preclinical Drug Pharmacokinetic, Tissue Distribution and Excretion Profiles of the Novel Limonin Derivate HY-071085 as an Anti-Inflammatory and Analgesic Candidate in Rats and Beagle Dogs” (Pharmaceuticals, 2022).

Like-named read-outs stand apart in the source and are kept apart here.

Details of data set [1]: method as in earlier work. As to conditions: Temp 25℃; cited from earlier work.
Details of data set [2]: method as in PMID 16435568. As to conditions: cited from earlier work.
On the set-up of data set [3]: method as in earlier work. As to conditions: Temp 25℃; cited from earlier work. The source holds these as a separate data set.
Details of data set [4]: method as in earlier work. As to conditions: Temp 25℃, pH 7.0; cited from earlier work.

Regarding `CC1(C)O[C@H]2CC(=O)OC[C@]23[C@H]2CC[C@@]4(C)[C@H](c5ccoc5)OC(=O)[C@H]5O[C@]54[C@]2(C)C(=O)C[C@@H]13` [Limonin], the logP – broadly, a log measure of how a compound divides between an organic and an aqueous phase – in data set [1] is listed as 0.474. The “exposure of female rats relative to male rats” value in data set [2] (intravenous administration) is recorded as “three-fold higher”; in data set [2] (oral administration), 50 fold. In addition, in data set [3], the Intrinsic solubility was 220 µg/mL. In addition, in data set [4], the LogD (in general, the decadic logarithm of the distribution of all forms, ionised or not, between an organic phase and buffer at a given pH) is 0.47.
